Consider 10 compounds from PubChem BioAssay (NCI).

Where “and” joins values, the source holds several entries; their conditions need not be identical. Equal values may be shown once.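 Growth conditions: 96-well plates. Treatment: test compound, 48 hours, 5 concentrations. Analysis: linear interpolation between bracketing concentrations; unreached endpoints set to highest concentration. The concentration for 50% growth inhibition is given as GI50. TGI denotes the concentration required for complete inhibition of growth.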 Where a SMILES comes first, the peptide text is derived from it. The star is where a group is joined. Boc = CC(C)(C)OC(=O)*; nBu = CCCC*

Test systems include MDA-MB-435; IGROV1 ovarian; UACC-257 melanoma; SNB-19 CNS; MCF7 breast; MDA-MB-231 breast; U251 CNS; M14 melanoma; HT29 colon; HCC-2998 colon; CAKI-1 renal; OVCAR-8 ovarian; SK-MEL-5 melanoma; SK-MEL-2 melanoma.
Holding throughout (experiment): growth of human tumour cells (NCI), 48 h

For `CCCCOc1ccc(CC(NC(=O)OC(C)(C)C)C(=O)NC(C)C(=O)NC(Cc2ccccc2)C(=O)NCC(N)=O)cc1` (stereo not given) (Boc-Y(nBu)AFG-NH2; configuration not given here), the TGI in the assay on MDA-MB-435, in the assay on IGROV1 ovarian, in the assay with UACC-257 melanoma, with SNB-19 CNS, in the assay with MCF7 breast and in the assay on MDA-MB-231 breast was greater than 100 µM in each case. Also, the TGI in the assay on U251 CNS, in the assay with M14 melanoma, with HT29 colon, with HCC-2998 colon, with CAKI-1 renal and in the assay with OVCAR-8 ovarian was greater than 100 µM in each case. The TGI was greater than 100 µM in the assay with SK-MEL-5 melanoma and 51 µM with SK-MEL-2 melanoma.

With `C=C1C(O)C2(O)OCC34C(CC5C(C)=CC(=O)C(O)C5(C)C23)OC(=O)C(OC(=O)C/C=C/CCCCCCCC)C14` (stereo not given), the TGI is 0.0303 µM in the assay on IGROV1 ovarian; 0.0335 µM with SNB-19 CNS; 0.0227 µM in the assay on U251 CNS; 0.115 µM in the assay on HT29 colon; 0.0308 µM with HCC-2998 colon; 0.232 µM in the assay with CAKI-1 renal. For the same compound, the TGI in the assay with OVCAR-8 ovarian was 0.0241 µM; with SK-MEL-2 melanoma it was 0.0361 µM.

With `CCCCCCCCCCCCCCCc1nc(=S)[nH][nH]1`, the TGI in the assay on UACC-257 melanoma, in the assay with SNB-19 CNS, with U251 CNS, in the assay with M14 melanoma, in the assay with HT29 colon and in the assay with HCC-2998 colon was greater than 100 µM in each case. In addition, the TGI in the assay with SK-MEL-2 melanoma was greater than 100 µM.

`COc1cc(C2S/C(=C/c3ccccc3)C(=O)N2c2cccc(NC(C)=O)c2)cc(OC)c1OC` (stereo not given): the TGI in the assay with MDA-MB-435 is 47.2 µM; in the assay on UACC-257 melanoma it was greater than 100 µM; in the assay on SNB-19 CNS it was greater than 100 µM; in the assay on MCF7 breast it was greater than 100 µM; in the assay on MDA-MB-231 breast, 50.7 µM; in the assay with U251 CNS it was 50.8 µM. Also, the TGI in the assay with M14 melanoma is greater than 100 µM; in the assay with HT29 colon, 59.7 µM; with HCC-2998 colon, greater than 100 µM; with CAKI-1 renal, greater than 100 µM; with OVCAR-8 ovarian it was greater than 100 µM; in the assay on SK-MEL-5 melanoma it was greater than 100 µM.

With `CC1(C)OC[C@@H]([C@@]2(COC(c3ccccc3)(c3ccccc3)c3ccccc3)CC=CC(=O)O2)O1`, the TGI in the assay with MDA-MB-435 was greater than 100 µM; with UACC-257 melanoma it was greater than 100 µM; in the assay with SNB-19 CNS it was greater than 100 µM; with MCF7 breast, 54.6 µM; in the assay with MDA-MB-231 breast, greater than 100 µM; in the assay on U251 CNS, greater than 100 µM. The TGI with M14 melanoma is greater than 100 µM; with HT29 colon, greater than 100 µM; in the assay with HCC-2998 colon, 41 µM; with CAKI-1 renal, greater than 100 µM; in the assay on OVCAR-8 ovarian it was greater than 100 µM; in the assay with SK-MEL-2 melanoma it was 31.1 µM.

Regarding `O=c1c2cc(O)ccc2n2nnc3ccc(NCCNCCO)c1c32`, the GI50 in the assay with IGROV1 ovarian is 14.4 µM and 5.57 µM; in the assay with UACC-257 melanoma, 20.5 µM and 6.76 µM; in the assay with M14 melanoma, 11.9 µM and 5.64 µM; in the assay with HCC-2998 colon, 10.9 µM and 3.43 µM; in the assay on SK-MEL-5 melanoma it was 12.9 µM and 2.39 µM; in the assay with SK-MEL-2 melanoma, 9.4 µM and 4.34 µM. Besides, the TGI is > 78.7 µM and 39.1 µM with IGROV1 ovarian; 53.8 µM and 20.7 µM in the assay with UACC-257 melanoma; 39.4 µM and 29.1 µM in the assay on SNB-19 CNS; 7.43 µM and 13.3 µM in the assay on U251 CNS; 31.2 µM and 17.9 µM in the assay on M14 melanoma; > 66.3 µM and 29.1 µM with HT29 colon. Moreover, the TGI with HCC-2998 colon was 26.4 µM and 14.5 µM; in the assay on CAKI-1 renal, 43 µM and > 61.9 µM; in the assay with OVCAR-8 ovarian, 42 µM and 17.7 µM; in the assay on SK-MEL-5 melanoma it was 28.9 µM and 11.7 µM; in the assay with SK-MEL-2 melanoma it was 23.5 µM and 13.5 µM.

As for `Cc1ccc(-c2cc(-c3ccc(Cl)cc3)nc(/N=C3\C(=O)N(CN(C)C)c4ccccc43)n2)cc1`, the TGI is 32.1 µM in the assay on MDA-MB-435; greater than 100 µM with IGROV1 ovarian; 94.7 µM in the assay with UACC-257 melanoma; greater than 100 µM in the assay with SNB-19 CNS; greater than 100 µM in the assay on MCF7 breast; greater than 100 µM in the assay on MDA-MB-231 breast. Moreover, the TGI with U251 CNS, with M14 melanoma, in the assay on HT29 colon, in the assay on CAKI-1 renal, in the assay with OVCAR-8 ovarian and in the assay on SK-MEL-5 melanoma was greater than 100 µM throughout. Moreover, the TGI with SK-MEL-2 melanoma is greater than 100 µM.

`Nc1nc(SCC(=O)c2ccc(Br)cc2)c2[nH]cnc2n1`: the TGI in the assay on MDA-MB-435 was greater than 100 µM; with IGROV1 ovarian it was 50.8 µM; with UACC-257 melanoma, greater than 100 µM; in the assay with SNB-19 CNS, greater than 100 µM; in the assay with MCF7 breast, greater than 100 µM; with MDA-MB-231 breast, greater than 100 µM. The TGI in the assay with U251 CNS was greater than 100 µM; with M14 melanoma it was greater than 100 µM; in the assay on HT29 colon, greater than 100 µM; with CAKI-1 renal, greater than 100 µM; with OVCAR-8 ovarian, greater than 100 µM; in the assay with SK-MEL-5 melanoma, 60.3 µM. Also, the TGI in the assay on SK-MEL-2 melanoma is greater than 100 µM.

Consider `Oc1ccccc1C=Nc1ccc(-c2nc3ccccc3s2)cc1`, for which the TGI with MDA-MB-435 is greater than 100 µM; in the assay on IGROV1 ovarian, greater than 100 µM; with UACC-257 melanoma, 67.5 µM; in the assay with SNB-19 CNS it was greater than 100 µM; in the assay with U251 CNS, greater than 100 µM; in the assay with M14 melanoma it was greater than 100 µM. Besides, the TGI in the assay with HT29 colon is greater than 100 µM; in the assay on HCC-2998 colon, 45.4 µM; with CAKI-1 renal it was greater than 100 µM; with OVCAR-8 ovarian, greater than 100 µM; in the assay on SK-MEL-5 melanoma, 31.9 µM; in the assay with SK-MEL-2 melanoma it was 50.5 µM.

On to `COc1ccc(C2C3CCc4ccccc4C3=NN2S(=O)(=O)c2cccc(C(=O)O)c2OC)cc1` (stereo not given), for which the TGI in the assay on MDA-MB-435 was 4.15 µM; in the assay on IGROV1 ovarian, greater than 100 µM; with SNB-19 CNS, greater than 100 µM; with MCF7 breast, 6.55 µM; in the assay with MDA-MB-231 breast, greater than 100 µM; in the assay on U251 CNS, 34.9 µM. Besides, the TGI with M14 melanoma is greater than 100 µM; in the assay on HT29 colon it was greater than 100 µM; in the assay on CAKI-1 renal, greater than 100 µM; with OVCAR-8 ovarian it was greater than 100 µM; in the assay on SK-MEL-5 melanoma, greater than 100 µM; in the assay with SK-MEL-2 melanoma, 60 µM.
